From patent US9139570B2, “Solid forms of an antiviral compound” (priority 2012, dated 2015)
“And” between values parts separate entries of the source, which are not always exact repeats. Equal values may be shown once. Read-outs that look alike come from different tables or passages of the source.

Tests used:
[1] = Dynamic vapor sorption (DVS) hygroscopicity; assay type: physicochemical; conditions: for moisture uptake / weight gain (DVS): at 90% relative humidity
[2] = Stable form screen (slurry in solvents, XRPD); assay type: physicochemical; conditions: 2 weeks
Experimental: Approximately 15-60 mg of amorphous (1-{3-[6-(9,9-difluoro-7-{2-[5-(2-methoxycarbonylamino-3-methyl-butyryl)-5-aza-spiro[2.4]hept-6-yl]-3H-imidazol-4-yl}-9H-fluoren-2-yl)-1H-benzoimidazol-2-yl]-2-aza-bicyclo[2.2.1]heptane-2-carbonyl}-2-methyl-propyl)-carbamic acid (HPLC purity of 99.3%) were weighed and transferred to a vial equipped with a mini magnetic stir bar. […] The slurry was allowed to stir for two weeks at room temperature (˜22° C.) and examined periodically.
After two weeks, a sample of 300 μL of the slurry was removed from the vial, transferred to a centrifuge filter (Costar, 0.45 micron) and centrifuged at 1000 rpm for 2 minutes. The solid in the wet cake form were analyzed using XRPD analysis (PANalytical X'Pert PRO X-ray powder diffractometer). This diffractometer uses Cu-Kα radiation at a wavelength of 1.54178 Å, and it operates under reflection mode. Scan range is from 2 to 40 degree 2 theta. The step size is 0.0080 at a scan speed of 0.13°/s, which gives about 5 min per scan. After air drying the small sample, XRPD analysis was performed again to monitor any change in the diffraction pattern between the wet and dry material. Thermogravimetric analysis (TGA) was run on the saturated solution to determine the solubility of the equilibrating solids in the solvent when the solid appeared to be crystalline.

[3] = Photostability of solid forms, photoexposure 0.9 M Lux-hrs, HPLC analysis; assay type: physicochemical
Text: FIG. 6 compares the photodegradation behaviors of amorphous Compound I (vertical stripes), Compound I Form II (horizontal stripes), and a partially amorphous hydrochloride salt of Compound I (diagonal stripes) during photoexposure at 0.9 M Lux-hrs. The leftmost group of bars represents the overall decrease in HPLC % AN of these three forms of Compound I. The middle group of bars represents the formation of a primary photodegradation impurity resulting from each form of Compound I. The rightmost group of bars similarly represents the formation of a secondary photodegradation impurity that eluted on HPLC at relative retention time (RRT) 1.67.
HPLC analyses of the samples compared the amounts of photodegradation products in each sample. […] For example, Form II of Compound I gave rise to the lowest (2.24% AN) amount of photodegradation in this experiment.
The middle group and rightmost group of bars depict the amounts of two of the major photodegradation impurities formed after the three solid forms of Compound I were photoexposed.

[4] = Dissolution rate / kinetic solubility in water at pH 3
Slurry test in water = assay type: physicochemical
Text: The source of water is believed to be moisture in the air during material transfer.

[5] = Solubility of Compound I over a greater pH range; conditions: aqueous buffer

SMILES: COC(=O)N[C@H](C(=O)N1CC2(CC2)C[C@H]1c1ncc(-c2ccc3c(c2)C(F)(F)c2cc(-c4ccc5nc([C@@H]6[C@H]7CC[C@H](C7)N6C(=O)[C@@H](NC(=O)OC)C(C)C)[nH]c5c4)ccc2-3)[nH]1)C(C)C [Compound I D-tartrate, (1-{3-[6-(9,9-difluoro-7-{2-[5-(2-methoxycarbonylamino-3-methyl-butyryl)-5-aza-spiro[2.4]hept-6-yl]-3H-imidazol-4-yl}-9H-fluoren-2-yl)-1H-benzoimidazol-2-yl]-2-aza-bicyclo[2.2.1]heptane-2-carbonyl}-2-methyl-propyl)-carbamic acid D-tartrate]
- moisture uptake / weight gain (DVS) [1]: less than 3%
- physical form by XRPD after slurry in various solvents [2]: physical form did not change

SMILES: COC(=O)N[C@H](C(=O)N1CC2(CC2)C[C@H]1c1ncc(-c2ccc3c(c2)C(F)(F)c2cc(-c4ccc5nc([C@@H]6[C@H]7CC[C@H](C7)N6C(=O)[C@@H](NC(=O)OC)C(C)C)[nH]c5c4)ccc2-3)[nH]1)C(C)C [Compound I Form II, (1-{3-[6-(9,9-difluoro-7-{2-[5-(2-methoxycarbonylamino-3-methyl-butyryl)-5-aza-spiro[2.4]hept-6-yl]-3H-imidazol-4-yl}-9H-fluoren-2-yl)-1H-benzoimidazol-2-yl]-2-aza-bicyclo[2.2.1]heptane-2-carbonyl}-2-methyl-propyl)-carbamic acid methyl ester monoacetone solvate]
- photostability compared with amorphous Compound I and partially amorphous HCl salt [3]: best photostability among the three forms compared
- overall decrease in HPLC % AN (amount of photodegradation) ([3]; solid): 2.24 % AN
- dissolution rate ranking [4]: slowest dissolution rate

SMILES: COC(=O)N[C@H](C(=O)N1CC2(CC2)C[C@H]1c1ncc(-c2ccc3c(c2)C(F)(F)c2cc(-c4ccc5nc([C@@H]6[C@H]7CC[C@H](C7)N6C(=O)[C@@H](NC(=O)OC)C(C)C)[nH]c5c4)ccc2-3)[nH]1)C(C)C [Compound I Form III, (1-{3-[6-(9,9-difluoro-7-{2-[5-(2-methoxycarbonylamino-3-methyl-butyryl)-5-aza-spiro[2.4]hept-6-yl]-3H-imidazol-4-yl}-9H-fluoren-2-yl)-1H-benzoimidazol-2-yl]-2-aza-bicyclo[2.2.1]heptane-2-carbonyl}-2-methyl-propyl)-carbamic acid methyl ester]
- moisture uptake / weight gain (DVS) ([1]; listed as Form III): less than 0.3%
- hygroscopicity by DVS (words) ([1]; listed as Form III): nonhygroscopic

SMILES: COC(=O)N[C@H](C(=O)N1CC2(CC2)C[C@H]1c1ncc(-c2ccc3c(c2)C(F)(F)c2cc(-c4ccc5nc([C@@H]6[C@H]7CC[C@H](C7)N6C(=O)[C@@H](NC(=O)OC)C(C)C)[nH]c5c4)ccc2-3)[nH]1)C(C)C [Compound I Form V, (1-{3-[6-(9,9-difluoro-7-{2-[5-(2-methoxycarbonylamino-3-methyl-butyryl)-5-aza-spiro[2.4]hept-6-yl]-3H-imidazol-4-yl}-9H-fluoren-2-yl)-1H-benzoimidazol-2-yl]-2-aza-bicyclo[2.2.1]heptane-2-carbonyl}-2-methyl-propyl)-carbamic acid methyl ester ethyl acetate solvate]
- hygroscopicity by DVS (words) ([1]; listed as Form V): non-hygroscopic

SMILES: COC(=O)N[C@H](C(=O)N1CC2(CC2)C[C@H]1c1ncc(-c2ccc3c(c2)C(F)(F)c2cc(-c4ccc5nc([C@@H]6[C@H]7CC[C@H](C7)N6C(=O)[C@@H](NC(=O)OC)C(C)C)[nH]c5c4)ccc2-3)[nH]1)C(C)C [Compound I Form VIII, (1-{3-[6-(9,9-difluoro-7-{2-[5-(2-methoxycarbonylamino-3-methyl-butyryl)-5-aza-spiro[2.4]hept-6-yl]-3H-imidazol-4-yl}-9H-fluoren-2-yl)-1H-benzoimidazol-2-yl]-2-aza-bicyclo[2.2.1]heptane-2-carbonyl}-2-methyl-propyl)-carbamic acid methyl ester]
- water absorbed (DVS) [1]: roughly one equivalent of water
- stability in water (slurry test) (Slurry test in water): stable in water

SMILES: COC(=O)N[C@H](C(=O)N1CC2(CC2)C[C@H]1c1ncc(-c2ccc3c(c2)C(F)(F)c2cc(-c4ccc5nc([C@@H]6[C@H]7CC[C@H](C7)N6C(=O)[C@@H](NC(=O)OC)C(C)C)[nH]c5c4)ccc2-3)[nH]1)C(C)C [Compound I Form XV, (1-{3-[6-(9,9-difluoro-7-{2-[5-(2-methoxycarbonylamino-3-methyl-butyryl)-5-aza-spiro[2.4]hept-6-yl]-3H-imidazol-4-yl}-9H-fluoren-2-yl)-1H-benzoimidazol-2-yl]-2-aza-bicyclo[2.2.1]heptane-2-carbonyl}-2-methyl-propyl)-carbamic acid methyl ester]
- hygroscopicity by DVS (words) ([1]; listed as Form XV): non-hygroscopic

SMILES: COC(=O)N[C@H](C(=O)N1CC2(CC2)C[C@H]1c1ncc(-c2ccc3c(c2)C(F)(F)c2cc(-c4ccc5nc([C@@H]6[C@H]7CC[C@H](C7)N6C(=O)[C@@H](NC(=O)OC)C(C)C)[nH]c5c4)ccc2-3)[nH]1)C(C)C [Compound I, (1-{3-[6-(9,9-difluoro-7-{2-[5-(2-methoxycarbonylamino-3-methyl-butyryl)-5-aza-spiro[2.4]hept-6-yl]-3H-imidazol-4-yl}-9H-fluoren-2-yl)-1H-benzoimidazol-2-yl]-2-aza-bicyclo[2.2.1]heptane-2-carbonyl}-2-methyl-propyl)-carbamic acid methyl ester]
- solubility [5]: < 1 µg/mL

SMILES: COC(=O)N[C@H](C(=O)N1CC2(CC2)C[C@H]1c1ncc(-c2ccc3c(c2)C(F)(F)c2cc(-c4ccc5nc([C@@H]6[C@H]7CC[C@H](C7)N6C(=O)[C@@H](NC(=O)OC)C(C)C)[nH]c5c4)ccc2-3)[nH]1)C(C)C [amorphous Compound I]
- hygroscopicity by DVS (words) [1]: hygroscopic
- moisture induced phase transformation ([1]; any humidity level): does not undergo moisture induced phase transformation
- moisture uptake / weight gain (DVS) [1]: 5.4% and 5.6%
